Test results taken from patent publication US12343352B2, “N-(phenylsulfonyl)benzamides and related compounds as Bcl-2 inhibitors” (ASCENTAGE PHARMA (SUZHOU) CO., LTD., priority 2019, dated 2025).

Key:
CYP enzymes = experiment: Comparative metabolism studies: metabolizing CYP enzymes and CYP inhibition/induction (liver microsome assays); assay type: in vitro ADME
Experimental: (§1) Metabolism studies of Compound 1 and Compound Z were evaluated in both mouse and dog liver microsome assays.

[1] = Steady state pharmacokinetics in patients following multiple oral doses; assay type: in vivo; details: human, plasma, multiple oral doses of 400 mg once daily; for AUC(0-t): read-out: AUC(0-24 h); for half-life: read-out: T½ (converted)
[2] = Dog liver microsome assay / metabolites in dog plasma; assay type: in vitro ADME
Experimental: as §1

[3] = Mouse liver microsome assay / metabolites in mouse plasma; assay type: in vitro ADME
Experimental: as §1

[4] = Pharmacokinetic properties of Compound 1 compared with Compound Z (systemic exposure and tumor tissues); assay type: in vivo; details: versus Compound Z
[5] = Metabolites in human plasma; assay type: in vivo

Row | SMILES | inhibition or induction of major CYP enzymes (CYP enzymes) | mainly metabolized by (CYP enzymes) (CYP enzymes; mouse, dog, microsomes) | Cmax [1] [ng/mL] | Tmax [1] [h] | AUC(0-t) [1] [ng·h/mL] | half-life [1] [h] | metabolites found in dog plasma [2] | major metabolite (>10%) in mouse plasma ([3]; mouse liver microsome assay) | Cmax in systemic exposure relative to Compound Z ([4]; systemic exposure) | half-life in systemic exposure relative to Compound Z ([4]; systemic exposure) | Cmax in tumor tissues relative to Compound Z ([4]; tumor tissues) | half-life in tumor tissues relative to Compound Z ([4]; tumor tissues) | mainly metabolized by (CYP enzymes) (CYP enzymes; mouse and dog liver microsome assays) | major metabolite (>10%) in human plasma [5] | other metabolites found in mouse plasma ([3]; mouse plasma)
1 | O=C(NS(=O)(=O)c1ccc(NC[C@H]2COCCO2)c([N+](=O)[O-])c1)c1ccc(N2CCN(CC3=C(c4ccc(Cl)cc4)CC4(CCC4)CC3)CC2)cc1Oc1cnc2[nH]ccc2c1 [Compound 1, (S)-N-((4-(((1,4-dioxan-2-yl)methyl)amino)-3-nitrophenyl)sulfonyl)-2-((1H-pyrrolo[2,3-b]pyridin-5-yl)oxy)-4-(4-((6-(4-chlorophenyl)spiro[3.5]non-6-en-7-yl)methyl)piperazin-1-yl)benzamide] | not found to inhibit or induce any major CYP enzymes | CYP3A4 and CYP2C8 | 970 | 6 | 9960 | 4.43 | minor oxidation metabolites | amide bond hydrolysis M2 | higher | shorter | higher | similar | – | – | –
2 | CC1(C)CCC(CN2CCN(c3ccc(C(=O)NS(=O)(=O)c4ccc(NCC5CCOCC5)c([N+](=O)[O-])c4)c(Oc4cnc5[nH]ccc5c4)c3)CC2)=C(c2ccc(Cl)cc2)C1 [Compound Z, Venetoclax, reference compound] | – | – | 2180 | 7 | 35500 | 26 | minor oxidation metabolites | – | – | – | – | – | CYP3A4 and CYP3A5 | oxidative metabolite M27 | minor oxidation metabolites
